Test results: article PMC4014698 (Pharmaceuticals, 2014)
Values after ≈ are worked out from the molar mass of the structure shown. Non-standard residues stand in square brackets, D forms with d. Residues, ends and D or L forms follow the SMILES beside them.

Columns and labels:
A. baumannii strain 689 = format: cell-based, Acinetobacter baumannii; details: source groin; Mueller-Hinton medium, 37 °C, 24 h, 5 × 10^5 CFU/mL; three sets of determinations
From the text: (§1) All the A. baumannii strains used in this study were (1) obtained from the collection of Dr. Anthony A. Campagnari at the University of Buffalo and originally isolated from different patients and organs/tissues (strain 649, blood; strain 689, groin; strain 759, gluteus; strain 821, urine; strain 884, axilla; strain 899, perineum; strain 964, throat; strain 985, pleural fluid and strain 1012, sputum); (2) were purchased from the American Type Culture Collection (ATCC, Manassas, VA, USA) (strain ATCC 17978, fatal meningitis; and strain ATCC 19606, urine).
(§2) The minimal inhibitory concentration (MIC) is defined as the lowest peptide concentration that inhibited bacterial growth. MICs were measured by a standard microtiter dilution method in Mueller Hinton (MH) medium. Briefly, cells were grown overnight at 37 °C in MH broth and were diluted in the same medium. Serial dilutions of the peptides were added to the microtiter plates in a volume of 50 µL, followed by the addition of 50 µL of bacteria to give a final inoculum of 5 × 10^5 colony-forming units (CFU)/mL. The plates were incubated at 37 °C for 24 h, and the MICs were determined.

A. baumannii strain 899 = format: cell-based, Acinetobacter baumannii; details: source perineum; Mueller-Hinton medium, 37 °C, 24 h, 5 × 10^5 CFU/mL; three sets of determinations
From the text: as §1, §2

[1] = tested on: A. baumannii strain ATCC 17978; format: cell-based, Acinetobacter baumannii; details: ATCC 17978, 24 h
From the text: as §1, §2

A. baumannii strain 1012 = format: cell-based, Acinetobacter baumannii; details: source sputum; Mueller-Hinton medium, 37 °C, 24 h, 5 × 10^5 CFU/mL; three sets of determinations
From the text: as §1, §2

A. baumannii strain 964 = format: cell-based, Acinetobacter baumannii; details: source throat; Mueller-Hinton medium, 37 °C, 24 h, 5 × 10^5 CFU/mL; three sets of determinations
From the text: as §1, §2

A. baumannii strain 985 = format: cell-based, Acinetobacter baumannii; details: source pleural fluid; Mueller-Hinton medium, 37 °C, 24 h, 5 × 10^5 CFU/mL; three sets of determinations
From the text: as §1, §2

P. aeruginosa strain WR5 = details: source burn patient; Mueller-Hinton medium, 37 °C, 24 h, 5 × 10^5 CFU/mL; three sets of determinations
From the text: (§3) P. aeruginosa strains used are as follows: strain PAO1 was isolated from a human wound in 1955 in Australia; strain WR5 was isolated from a burn patient at Walter Reed Army Hospital, Washington, DC, USA, in 1976 and is a natural toxA^− mutant, but is virulent in experimental mouse models; strain PAK was originally isolated at Memorial University, St. John’s, Newfoundland, Canada, and is widely used in the analysis of pili; strain PA14 was originally isolated as a clinical isolate in 1995 at the Massachusetts General Hospital, Boston, MA, USA and is virulent in a variety of plant and animal models of infection; strain M2 was originally isolated in 1975 from the gastrointestinal tract of a healthy CF1 mouse, University of Cincinnati College of Medicine, and Shriners Burns Institute, Cincinnati, OH, USA and is virulent in a burn mouse model of P. aeruginosa infection; and strain CP204 was isolated from a cystic fibrosis patient in 1989 at the National Jewish Medical and Research Center, Denver, CO, USA. All strains have been maintained at −80 °C in the laboratory of Michael Vasil, University of Colorado, School of Medicine.
(§4) The minimal inhibitory concentration (MIC) is defined as the lowest peptide concentration that inhibited bacterial growth. MICs were measured by a standard microtiter dilution method in Mueller Hinton (MH) medium. Briefly, cells were grown overnight at 37 °C in MH broth and were diluted in the same medium. […] The plates were incubated at 37 °C for 24 h, and the MICs were determined.

[2] = tested on: P. aeruginosa strain CP204; details: source cystic fibrosis patient; Mueller-Hinton medium, 37 °C, 24 h, 5 × 10^5 CFU/mL; three sets of determinations
From the text: as §3, §4

[3] = tested on: P. aeruginosa strain PA14; details: Mueller-Hinton medium, 37 °C, 24 h, 5 × 10^5 CFU/mL; three sets of determinations
From the text: as §3, §4

[4] = tested on: P. aeruginosa strain PAO1; details: source human wound; Mueller-Hinton medium, 37 °C, 24 h, 5 × 10^5 CFU/mL; three sets of determinations
From the text: as §3, §4

P. aeruginosa strain M2 = details: source burn mouse model; Mueller-Hinton medium, 37 °C, 24 h, 5 × 10^5 CFU/mL; three sets of determinations
From the text: as §3, §4

P. aeruginosa strain PAK = details: Mueller-Hinton medium, 37 °C, 24 h, 5 × 10^5 CFU/mL; three sets of determinations
From the text: as §3, §4

[5] = tested on: Acinetobacter baumannii (11 different isolates); format: cell-based; details: geometric mean of the MIC values from 11 different isolates of A. baumannii; Table 3A
From the text: as §1, §2
Antibacterial activities against six strains of P. aeruginosa and eleven strains of A. baumannii are compared in Table 3. Geometric mean of MIC values was calculated to provide an overall view of antimicrobial activity of different analogs. It is clear that our peptides were effective in killing the microorganisms tested. Compared to a dramatic reduction in hemolytic activity, antibacterial activity of D-piscidin 1 and D-dermaseptin S4 analogs against eleven strains of A. baumannii maintained the same level (within 2-fold) upon the substitution of “specificity determinant(s)” (Table 3).

[6] = tested on: Pseudomonas aeruginosa (6 different isolates); details: geometric mean of the MIC values from 6 different isolates of P. aeruginosa; Table 3B
From the text: as §3, §4
Geometric mean of MIC values was calculated to provide an overall view of antimicrobial activity of different analogs.

[7] = tested on: A. baumannii strain ATCC 19606; experiment: MIC, microtiter dilution; format: cell-based, Acinetobacter baumannii; details: source urine; Mueller-Hinton medium, 37 °C, 24 h, 5 × 10^5 CFU/mL; three sets of determinations
From the text: as §1, §2

A. baumannii strain 821 = experiment: MIC, microtiter dilution; format: cell-based, Acinetobacter baumannii; details: source urine; Mueller-Hinton medium, 37 °C, 24 h, 5 × 10^5 CFU/mL; three sets of determinations
From the text: as §1, §2

A. baumannii strain 649 = experiment: MIC, microtiter dilution; format: cell-based, Acinetobacter baumannii; details: source blood; Mueller-Hinton medium, 37 °C, 24 h, 5 × 10^5 CFU/mL; three sets of determinations
From the text: as §1, §2

A. baumannii strain 759 = experiment: MIC, microtiter dilution; format: cell-based, Acinetobacter baumannii; details: source gluteus; Mueller-Hinton medium, 37 °C, 24 h, 5 × 10^5 CFU/mL; three sets of determinations
From the text: as §1, §2

A. baumannii strain 884 = experiment: MIC, microtiter dilution; format: cell-based, Acinetobacter baumannii; details: source axilla; Mueller-Hinton medium, 37 °C, 24 h, 5 × 10^5 CFU/mL; three sets of determinations
From the text: as §1, §2

human erythrocytes = experiment: Hemolytic activity (HC50); format: cell-based; details: for Hemolytic activity HC50: concentration giving 50% hemolysis after 18 h at 37 °C, 1% human erythrocytes in PBS pH 7.4, hemoglobin release at 570 nm, 100% control water (Figure 7)
Procedure: Hemoglobin release was determined spectrophotometrically at 570 nm.
From these plots, the HC50 values, the peptide concentration that produces 50% hemolysis of human red blood cells after 18 hours in the standard microtiter dilution method was determined.

| Compound | MIC 689 (A. baumannii strain 689) | MIC 899 (A. baumannii strain 899) | MIC ATCC17978 [1] | MIC 1012 (A. baumannii strain 1012) | MIC 964 (A. baumannii strain 964) | MIC 985 (A. baumannii strain 985) | MIC WR5 (P. aeruginosa strain WR5) | MIC CP204 [2] | MIC PA14 [3] | MIC PAO1 [4] | MIC M2 (P. aeruginosa strain M2) | MIC PAK (P. aeruginosa strain PAK) | MIC GM [5] | MIC GM [6] | MIC ATCC19606 [7] | MIC 821 (A. baumannii strain 821) | MIC 649 (A. baumannii strain 649) | MIC 759 (A. baumannii strain 759) | MIC 884 (A. baumannii strain 884) | Hemolytic activity HC50 (human erythrocytes) | further results |
| --- | --- | --- | --- | --- | --- | --- | --- | --- | --- | --- | --- | --- | --- | --- | --- | --- | --- | --- | --- | --- | --- |
| CC[C@@H](C)[C@@H](NC(=O)CNC(=O)[C@@H](CCCNC(=N)N)NC(=O)[C@@H](Cc1ccccc1)NC(=O)[C@H](NC(=O)[C@@H](Cc1c[nH]cn1)NC(=O)[C@@H](Cc1c[nH]cn1)NC(=O)[C@@H](Cc1ccccc1)NC(=O)[C@H](N)Cc1ccccc1)[C@H](C)CC)C(=O)N[C@@H](C(=O)N[C@H](Cc1c[nH]cn1)C(=O)N[C@@H](C(=O)N[C@H](CCCCN)C(=O)N[C@H](CCCCN)C(=O)N[C@@H](C(=O)N[C@@H](C(=O)N[C@H](Cc1c[nH]cn1)C(=O)N[C@H](CCCNC(=N)N)C(=O)N[C@H](CC(C)C)C(=O)N[C@@H](C(=O)N[C@@H](C(=O)NCC(N)=O)[C@H](C)O)C(C)C)[C@H](C)CC)[C@H](C)O)C(C)C)C(C)C [D-Piscidin 1 G13K] (H-[dF][dF][dH][dH][dI][dF][dR]G[dI][dV][dH][dV][dK][dK][dT][dI][dH][dR][dL][dV][dT]G-NH2) | 5.9 µM (≈ 15.6 µg/mL) | 5.9 µM (≈ 15.6 µg/mL) | 5.9 µM (≈ 15.6 µg/mL) | 5.9 µM (≈ 15.6 µg/mL) | 5.9 µM (≈ 15.6 µg/mL) | 3.0 µM (≈ 7.93 µg/mL) | 23.7 µM (≈ 62.6 µg/mL) | 47.3 µM (≈ 125 µg/mL) | 23.7 µM (≈ 62.6 µg/mL) | 23.7 µM (≈ 62.6 µg/mL) | 11.8 µM (≈ 31.2 µg/mL) | 11.8 µM (≈ 31.2 µg/mL) | 5.2 µM (≈ 13.7 µg/mL) | 21.1 µM (≈ 55.8 µg/mL) | 5.9 µM (≈ 15.6 µg/mL) | 5.9 µM (≈ 15.6 µg/mL) | 3.0 µM (≈ 7.93 µg/mL) | 5.9 µM (≈ 15.6 µg/mL) | 5.9 µM (≈ 15.6 µg/mL) | 7.0 µM | – |
| CC[C@@H](C)[C@@H](NC(=O)[C@@H](Cc1c[nH]cn1)NC(=O)[C@@H](Cc1c[nH]cn1)NC(=O)[C@@H](Cc1ccccc1)NC(=O)[C@H](N)Cc1ccccc1)C(=O)N[C@H](Cc1ccccc1)C(=O)N[C@H](CCCNC(=N)N)C(=O)NCC(=O)N[C@H](CCCCN)C(=O)N[C@@H](C(=O)N[C@H](Cc1c[nH]cn1)C(=O)N[C@@H](C(=O)NCC(=O)N[C@H](CCCCN)C(=O)N[C@@H](C(=O)N[C@@H](C(=O)N[C@H](Cc1c[nH]cn1)C(=O)N[C@H](CCCNC(=N)N)C(=O)N[C@H](CC(C)C)C(=O)N[C@@H](C(=O)N[C@@H](C(=O)NCC(N)=O)[C@H](C)O)C(C)C)[C@H](C)CC)[C@H](C)O)C(C)C)C(C)C [D-Piscidin 1 I9K] (H-[dF][dF][dH][dH][dI][dF][dR]G[dK][dV][dH][dV]G[dK][dT][dI][dH][dR][dL][dV][dT]G-NH2) | 3.0 µM (≈ 7.76 µg/mL) | 3.0 µM (≈ 7.76 µg/mL) | 3.0 µM (≈ 7.76 µg/mL) | 6.0 µM (≈ 15.5 µg/mL) | 3.0 µM (≈ 7.76 µg/mL) | 3.0 µM (≈ 7.76 µg/mL) | 24.2 µM (≈ 62.6 µg/mL) | 48.3 µM (≈ 125 µg/mL) | 24.2 µM (≈ 62.6 µg/mL) | 48.3 µM (≈ 125 µg/mL) | 48.3 µM (≈ 125 µg/mL) | 12.1 µM (≈ 31.3 µg/mL) | 3.0 µM (≈ 7.76 µg/mL) | 30.5 µM (≈ 78.9 µg/mL) | 1.5 µM (≈ 3.88 µg/mL) | 3.0 µM (≈ 7.76 µg/mL) | 3.0 µM (≈ 7.76 µg/mL) | 3.0 µM (≈ 7.76 µg/mL) | 3.0 µM (≈ 7.76 µg/mL) | 98 µM | Hemolytic activity Fold improvement in HC50 (human erythrocytes): 54 fold; Hemolytic activity HC50, 18 hours (Figure 8 comparison) (human erythrocytes; 18 hours at 37 °C, human red blood cells, Figure 8, 100% control 0.1% Triton-X 100): 115 µM |
